According to patent US7459482B2, “Agent for treatment of cisplatin-resistant cancer” (Dainippon Sumitomo Pharma Co., Ltd., priority 2000, dated 2008):

Tested on: H4-II-E/CDDP cells
Test: Cell proliferation inhibitory effects after treating for 7 days, WST-1 assay; resistance of H4-II-E/CDDP cells in comparison with H4-II-E cells
Format: cell-based, rat
Details: for resistance of H4-II-E/CDDP cells to the drug: H4-II-E/CDDP cells vs H4-II-E cells
Method: Rat hepatic cancer H4-II-E was obtained from Dainippon Pharmaceutical Co., Ltd. The H4-II-E cells were cultured in MEM medium, during which the concentration of CDDP was increased stepwise from 0.1 μg/ml to 1.0 μg/ml over a period of about one year, by which method, the CDDP resistant cell line (H4-II-E/CDDP) was prepared. The cells used in the experiment were those obtained by subculturing in a CDDP-containing MEM medium (CDDP 1.0 μg/ml) in vitro.
The cell proliferation inhibitory effects of cisplatin to H4-II-E cells and H4-II-E/CDDP cells after treating for 7 days were evaluated by WST-1 assay.

| SMILES | resistance of H4-II-E/CDDP cells in comparison with H4-II-E cells (7 days treatment, WST-1 assay) | resistance of H4-II-E/CDDP cells to the drug |
| --- | --- | --- |
| N.N.[Cl][Pt][Cl] [cisplatin, Cisplatin] | about 10 folds |  |
| COc1cccc2c1C(=O)c1c(O)c3c(c(O)c1C2=O)C[C@@](O)(C(=O)CO)C[C@@H]3O[C@H]1C[C@H](N)[C@H](O)[C@H](C)O1 [doxorubicin] |  | did not show any resistance |
| COc1cc([C@@H]2c3cc4c(cc3[C@@H](O[C@@H]3O[C@@H]5CO[C@@H](C)O[C@H]5[C@H](O)[C@H]3O)[C@H]3COC(=O)[C@H]23)OCO4)cc(OC)c1O [etoposide] |  | did not show any resistance |
